Data reported in PubChem BioAssay (NCI).
Where “and” joins values, the source holds several entries; their conditions need not be identical. Identical values can stand only once.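 Compound exposure: 48 hours, 5 concentrations, 96-well plates. Definition used: TGI = concentration required for complete inhibition of growth.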

Experiments:
Test in all cases: growth of human tumour cells (NCI), 48 h
HOP-62 NSCLC = tested on: HOP-62 NSCLC
786-0 renal = tested on: 786-0 renal
SN12C renal = tested on: SN12C renal
SF-295 CNS = tested on: SF-295 CNS
HCC-2998 colon = tested on: HCC-2998 colon
U251 CNS = tested on: U251 CNS
SK-MEL-28 melanoma = tested on: SK-MEL-28 melanoma
SK-OV-3 ovarian = tested on: SK-OV-3 ovarian
MALME-3M melanoma = tested on: MALME-3M melanoma
SR leukemia = tested on: SR leukemia
ACHN renal = tested on: ACHN renal
UACC-257 melanoma = tested on: UACC-257 melanoma
A549 NSCLC = tested on: A549 NSCLC
OVCAR-3 ovarian = tested on: OVCAR-3 ovarian
RXF 393 renal = tested on: RXF 393 renal
HOP-92 NSCLC = tested on: HOP-92 NSCLC
MDA-MB-435 = tested on: MDA-MB-435

SMILES: CNc1ccc([N+](=O)[O-])c2c(NCCCN(C)C)ccnc12
- TGI (HOP-62 NSCLC): > 100 µM
- TGI (786-0 renal): > 100 µM
- TGI (SN12C renal): > 100 µM
- TGI (SF-295 CNS): > 100 µM
- TGI (HCC-2998 colon): > 100 µM
- TGI (U251 CNS): > 100 µM
- TGI (SK-MEL-28 melanoma): > 100 µM
- TGI (SK-OV-3 ovarian): > 100 µM
- TGI (MALME-3M melanoma): > 100 µM
- TGI (SR leukemia): > 100 µM
- TGI (ACHN renal): > 100 µM
- TGI (UACC-257 melanoma): > 100 µM
- TGI (A549 NSCLC): > 100 µM
- TGI (OVCAR-3 ovarian): > 100 µM

SMILES: O=C(NN1C(=O)C(Cl)C1c1ccccc1Cl)c1ccccc1O (stereo not drawn)
- TGI (786-0 renal): > 100 µM
- TGI (SN12C renal): > 100 µM
- TGI (SF-295 CNS): > 100 µM
- TGI (HCC-2998 colon): > 100 µM
- TGI (U251 CNS): > 100 µM
- TGI (SK-MEL-28 melanoma): > 100 µM
- TGI (SK-OV-3 ovarian): > 100 µM
- TGI (MALME-3M melanoma): > 100 µM
- TGI (ACHN renal): > 100 µM
- TGI (RXF 393 renal): 88.2 µM
- TGI (UACC-257 melanoma): > 100 µM
- TGI (A549 NSCLC): > 100 µM
- TGI (OVCAR-3 ovarian): > 100 µM

SMILES: COc1cc2c(c(OC)c1OC)-c1ccc(SC)c(=O)cc1[C@@H](NC(=O)c1ccc([N+](=O)[O-])cc1)CC2
- TGI (786-0 renal): 15.6 µM and 30.7 µM
- TGI (SN12C renal): 25 µM and > 100 µM
- TGI (SF-295 CNS): 0.00721 µM
- TGI (HCC-2998 colon): 0.0151 µM
- TGI (SK-MEL-28 melanoma): > 100 µM
- TGI (SK-OV-3 ovarian): 0.0575 µM
- TGI (MALME-3M melanoma): 25 µM and > 100 µM
- TGI (SR leukemia): 25 µM and > 100 µM
- TGI (ACHN renal): 25 µM and > 100 µM
- TGI (HOP-92 NSCLC): 23.2 µM
- TGI (A549 NSCLC): 25 µM and > 100 µM
- TGI (OVCAR-3 ovarian): 0.00595 µM

SMILES: COc1cc(C(O)C(=O)c2cnc3cc([N+](=O)[O-])ccc3n2)ccc1O (stereo not drawn)
- TGI (HOP-62 NSCLC): > 100 µM
- TGI (786-0 renal): > 100 µM
- TGI (SN12C renal): > 100 µM
- TGI (SF-295 CNS): > 100 µM
- TGI (HCC-2998 colon): > 100 µM
- TGI (U251 CNS): > 100 µM
- TGI (SK-OV-3 ovarian): > 100 µM
- TGI (MALME-3M melanoma): > 100 µM
- TGI (SR leukemia): > 100 µM
- TGI (ACHN renal): > 100 µM
- TGI (RXF 393 renal): > 100 µM
- TGI (UACC-257 melanoma): > 100 µM
- TGI (A549 NSCLC): > 100 µM

SMILES: C[N+](C)(C)CC(CC(=O)[O-])C1CC1 (stereo not drawn)
- TGI (HOP-62 NSCLC): > 100 µM
- TGI (786-0 renal): > 100 µM
- TGI (SN12C renal): > 100 µM
- TGI (SF-295 CNS): > 100 µM
- TGI (U251 CNS): > 100 µM
- TGI (SK-MEL-28 melanoma): > 100 µM
- TGI (SK-OV-3 ovarian): > 100 µM
- TGI (MALME-3M melanoma): > 100 µM
- TGI (ACHN renal): > 100 µM
- TGI (RXF 393 renal): > 100 µM
- TGI (UACC-257 melanoma): > 100 µM
- TGI (HOP-92 NSCLC): > 100 µM
- TGI (A549 NSCLC): > 100 µM
- TGI (OVCAR-3 ovarian): > 100 µM

SMILES: Cn1cnc(SC2=C3C(=O)C=C4S[C@H]5C[C@]42c2c(c(O)c4c6c2=[N+]3CCC=6C=N4)N5)c1CC(N)C(=O)O (stereo partly drawn)
- TGI (786-0 renal): 59.7 µM
- TGI (SN12C renal): 10.2 µM
- TGI (SF-295 CNS): 29.4 µM
- TGI (HCC-2998 colon): 29.8 µM
- TGI (U251 CNS): 31.3 µM
- TGI (SK-MEL-28 melanoma): 31.9 µM
- TGI (SK-OV-3 ovarian): 52.8 µM
- TGI (MALME-3M melanoma): 12.4 µM
- TGI (SR leukemia): 48.8 µM
- TGI (ACHN renal): 29.5 µM
- TGI (RXF 393 renal): 43.8 µM
- TGI (UACC-257 melanoma): 29.9 µM
- TGI (HOP-92 NSCLC): 34.5 µM
- TGI (A549 NSCLC): 56.7 µM
- TGI (OVCAR-3 ovarian): 14.6 µM

SMILES: C[N+](C)(C)CC(=O)N/N=C(/Cc1nc2ccc([N+](=O)[O-])cc2[nH]c1=O)C(=O)Nc1cc(C(F)(F)F)ccc1Cl
- TGI (HOP-62 NSCLC): > 100 µM
- TGI (786-0 renal): > 100 µM
- TGI (SN12C renal): > 100 µM
- TGI (SF-295 CNS): > 100 µM
- TGI (HCC-2998 colon): > 100 µM
- TGI (SK-MEL-28 melanoma): > 100 µM
- TGI (SK-OV-3 ovarian): > 100 µM
- TGI (MALME-3M melanoma): > 100 µM
- TGI (SR leukemia): > 100 µM
- TGI (ACHN renal): > 100 µM
- TGI (RXF 393 renal): > 100 µM
- TGI (UACC-257 melanoma): > 100 µM
- TGI (HOP-92 NSCLC): > 100 µM
- TGI (A549 NSCLC): > 100 µM
- TGI (OVCAR-3 ovarian): > 100 µM

SMILES: O=C(c1ccccc1)c1c(C(F)(F)F)n([O-])c2cc(F)c(F)cc2[n+]1=O
- TGI (HOP-62 NSCLC): 2.26 µM
- TGI (786-0 renal): 1.03 µM
- TGI (MDA-MB-435): 4.14 µM
- TGI (SF-295 CNS): 5.66 µM
- TGI (SK-MEL-28 melanoma): > 100 µM
- TGI (SK-OV-3 ovarian): > 49.5 µM
- TGI (MALME-3M melanoma): 0.42 µM
- TGI (ACHN renal): 0.232 µM
- TGI (RXF 393 renal): 2.22 µM
- TGI (UACC-257 melanoma): 3.76 µM
- TGI (HOP-92 NSCLC): 0.324 µM
- TGI (A549 NSCLC): 8.34 µM
- TGI (OVCAR-3 ovarian): 1.16 µM

SMILES: CC1=NN(C(=O)Cc2ccccc2)C(=O)/C1=C\c1ccccc1O
- TGI (HOP-62 NSCLC): > 100 µM
- TGI (786-0 renal): > 100 µM
- TGI (SN12C renal): > 100 µM
- TGI (SF-295 CNS): > 100 µM
- TGI (HCC-2998 colon): > 100 µM
- TGI (U251 CNS): > 100 µM
- TGI (SK-MEL-28 melanoma): > 100 µM
- TGI (SK-OV-3 ovarian): > 100 µM
- TGI (MALME-3M melanoma): > 100 µM
- TGI (ACHN renal): > 100 µM
- TGI (RXF 393 renal): > 100 µM
- TGI (UACC-257 melanoma): > 100 µM
- TGI (HOP-92 NSCLC): > 100 µM
- TGI (A549 NSCLC): > 100 µM
- TGI (OVCAR-3 ovarian): > 100 µM

SMILES: O=C(CSCC(=O)N/N=C\c1ccccc1F)N/N=C\c1ccccc1F
- TGI (786-0 renal): > 100 µM
- TGI (SN12C renal): > 100 µM
- TGI (MDA-MB-435): > 100 µM
- TGI (SF-295 CNS): > 100 µM
- TGI (HCC-2998 colon): > 100 µM
- TGI (U251 CNS): > 100 µM
- TGI (SK-MEL-28 melanoma): > 100 µM
- TGI (SK-OV-3 ovarian): > 100 µM
- TGI (MALME-3M melanoma): > 100 µM
- TGI (ACHN renal): > 100 µM
- TGI (RXF 393 renal): > 100 µM
- TGI (UACC-257 melanoma): > 100 µM
- TGI (HOP-92 NSCLC): > 100 µM
- TGI (A549 NSCLC): > 100 µM
- TGI (OVCAR-3 ovarian): > 100 µM

SMILES: CN(C(=O)C12C3C4C1C1C2C3C41C(O)C(C)(C)C)C(C)(C)C (stereo not drawn)
- TGI (HOP-62 NSCLC): > 100 µM
- TGI (786-0 renal): > 100 µM
- TGI (SN12C renal): > 100 µM
- TGI (SF-295 CNS): > 100 µM
- TGI (HCC-2998 colon): > 100 µM
- TGI (U251 CNS): > 100 µM
- TGI (SK-MEL-28 melanoma): > 100 µM
- TGI (SK-OV-3 ovarian): > 100 µM
- TGI (MALME-3M melanoma): > 100 µM
- TGI (ACHN renal): > 100 µM
- TGI (UACC-257 melanoma): > 100 µM
- TGI (A549 NSCLC): > 100 µM
- TGI (OVCAR-3 ovarian): > 100 µM

SMILES: COc1cc2c(c(OC)c1OC)-c1ccc(SC)c(=O)cc1[C@@H](NCc1cccc([N+](=O)[O-])c1)CC2
- TGI (786-0 renal): 34.4 µM
- TGI (SN12C renal): > 100 µM
- TGI (SF-295 CNS): > 100 µM
- TGI (HCC-2998 colon): < 0.01 µM
- TGI (U251 CNS): < 0.01 µM
- TGI (SK-OV-3 ovarian): > 100 µM
- TGI (MALME-3M melanoma): > 100 µM
- TGI (SR leukemia): > 100 µM
- TGI (ACHN renal): > 100 µM
- TGI (UACC-257 melanoma): > 100 µM
- TGI (HOP-92 NSCLC): > 100 µM
- TGI (A549 NSCLC): > 100 µM
- TGI (OVCAR-3 ovarian): < 0.01 µM

SMILES: c1ccc2c(c1)Sc1ccccc1N2C1CN2CCC1CC2 (stereo not drawn)
- TGI (HOP-62 NSCLC): 25.9 µM
- TGI (786-0 renal): 25.9 µM
- TGI (SN12C renal): 29.1 µM
- TGI (SF-295 CNS): 32.2 µM
- TGI (HCC-2998 colon): 29 µM
- TGI (U251 CNS): 30.9 µM
- TGI (SK-MEL-28 melanoma): 32.1 µM
- TGI (SK-OV-3 ovarian): 35.4 µM
- TGI (MALME-3M melanoma): 30.5 µM
- TGI (ACHN renal): 36.1 µM
- TGI (UACC-257 melanoma): 31.8 µM
- TGI (A549 NSCLC): 32.1 µM
- TGI (OVCAR-3 ovarian): 31.5 µM
